Four compounds from patent publication US4882343A, “Biarylalkylimidazole derivatives as anti-depressants” (G. D. Searle & Co., priority 1987, dated 1989) can be followed below.

Usually Ki stands for the dissociation constant of the complex between target and ligand, obtained from inhibition or displacement. As a reminder, the inhibition is the change of the read-out against control, counted positive when it falls. Broadly, the LD50 is the dose expected to kill half of the subjects tested. Low values mean greater toxicity, high ones lower toxicity.

One series concerns α1 adrenergic receptor. As to the kind of experiment: in vitro binding to alpha1-adrenergic receptors (3H-WB4101 or 3H-prazosin displacement), rat brain homogenates. To be noted: for % Inhibition of the specific binding for α1 receptor, Ligand WB / % Inhibition of the specific binding for α1 receptor, Ligand PRA: compd. conc. 10^-6 M, rat brain homogenates; for % Inhibition of the specific binding for α1 receptor, Ligand WB: ligand 3H-WB4101 1.6 nM; for % Inhibition of the specific binding for α1 receptor, Ligand PRA: ligand 3H-prazosin 0.2 nM; for Ki: ligand 3H-prazosin, Cheng and Prusoff, read-out: α1 receptor Ki value, ligand PRA. Here is the method: Table II summarizes the binding activities for α1 and α2 adrenergic receptors of the compounds tested. The activity of the compounds according to the invention with respect to binding of the α-adrenergic receptors was determined in vitro according to a method derived from the works of B. R. Rouot, et al., Life Sci., 25, 769 (1979) of D. U'Prichard, et al., Mol. Pharmacol., 13, 454 (1977) and of P. Greengrass, et al., European J. Pharmacol., 55, 323, 1979. This method measures the binding to the receptor on rat brain homogenates by marking by means of a specific tritiated ligand placed in competition with the product to be tested. In the present case the binding, to the α1 -adrenergic receptors was measured by use of 1.6 nM of H-WB 4101 (WB) and 0.2 nM --H--prazosin (PRA). The binding to the α2-adrenergic receptors was determined by uses of 0.7 nM of ^3 H-p-aminoclonidine (PAC). The non-specific binding was determined by use of 1,000 nM of phentolamine. Results are given in Table II with columns 2 and 3 expressed in terms of percentage of inhibition of the specific binding at 10^-7 molar and 10^-6 molar compound concentration.
In Table III, columns 2 and 3 show the pKi values (pKi=-log inhibition constant) for respecively the α1 receptor (ligand ^3 H-prazosin) and the α2 receptor (ligand ^3 H-p-aminoclonidine), calculated according to the equation of Cheng and Prusoff: [formula] wherein: Ki represents the inhibition constant;
IC50 represents the concentration of the test compound providing 50% inhibition of the specific binding;
(§1) KD represents the dissociation constant of the ^3 H-ligand in the test mixture
(§2) [L*] represents the concentration of the ^3 H-ligand in the test mixture.

Series [1] deals with T1, α2 adrenergic receptor (Rattus norvegicus, UniProt P22909).
T1 construct: rat brain homogenates; from tissue; host or cells: rat brain homogenate
T1 sequence (P22909 1-465): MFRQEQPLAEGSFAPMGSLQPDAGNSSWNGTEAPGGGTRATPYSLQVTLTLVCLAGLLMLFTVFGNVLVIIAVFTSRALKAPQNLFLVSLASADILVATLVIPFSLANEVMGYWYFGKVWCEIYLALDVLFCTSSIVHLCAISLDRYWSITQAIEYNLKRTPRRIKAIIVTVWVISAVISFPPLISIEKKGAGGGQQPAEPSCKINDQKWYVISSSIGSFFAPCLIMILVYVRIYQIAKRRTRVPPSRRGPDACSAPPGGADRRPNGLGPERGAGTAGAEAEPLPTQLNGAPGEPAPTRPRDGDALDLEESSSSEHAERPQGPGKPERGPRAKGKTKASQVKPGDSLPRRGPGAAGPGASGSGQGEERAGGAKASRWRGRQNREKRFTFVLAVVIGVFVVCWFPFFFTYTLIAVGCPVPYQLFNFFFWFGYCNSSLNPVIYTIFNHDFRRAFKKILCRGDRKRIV
As to the kind of experiment: in vitro binding to alpha2-adrenergic receptors (3H-p-aminoclonidine displacement), rat brain homogenates. As to conditions: for Ki: ligand 3H-p-aminoclonidine, Cheng and Prusoff, read-out: α2 receptor Ki value, ligand PAC; for inhibition at 0.1 µM: compd. conc. 10^-7 M, ligand 3H-p-aminoclonidine 0.7 nM, rat brain homogenates, read-out: % Inhibition of the specific binding for α2 receptor, Ligand PAC; for affinity for α2 receptors in the in vitro binding assay (in words): rat brain, result in words; for α2-receptor binding affinity for the aminoclonidine ligand relative to the ortho-pyridyl compound (Compound 3): para- and meta-pyridyl compounds versus ortho-pyridyl compound, Table III column 3. As for the experimental part: (§3) This method measures the binding to the receptor on rat brain homogenates by marking by means of a specific tritiated ligand placed in competition with the product to be tested. […] The binding to the α2-adrenergic receptors was determined by uses of 0.7 nM of ^3 H-p-aminoclonidine (PAC). The non-specific binding was determined by use of 1,000 nM of phentolamine.
as §1, §2

For series [2], the system named is α2 adrenergic receptor. The series is described as above. To be noted: ratio of Ki, ligand PRA (α1) / ligand PAC (α2). As for the experimental part:
as §3, §1, §2

Series [3] relates to clonidine-induced depression of locomotor activity (α2 agonist effects). As to the kind of experiment: open field test, antagonism of clonidine-induced depression of locomotor and rearing activity. It is filed as in vivo, mouse. As to conditions: 3 mg/kg p.o.; for Open field test % inhibition of clonidine hypomobility, Locomotion / Open field test % inhibition of clonidine hypomobility, Rearing: 1 h before clonidine 150 μg/kg i.p., mouse. As for the experimental part: This study involved clonidine α2 agonist effects on central control of locomotor activity. Clonidine inhibits locomotor activity and rearing activity in the mouse. In this "open field" test, mice were pretreated with the compounds of the present invention at a dose of 3 mg/kg p.o. (n=4 to 8), one hour prior to intraperitoneal administration of clonidine in solution (150 μg/kg, i.p.). Ninety minutes after the clonidine administration the animals were placed in a rectangular "open field" of 47×53 cm, having a floor divided into 36 boxes of about 8×9 cm. The number of boxes through which the animal goes in 3 minutes and the number of rearing episode were noted.

Series [4] can be described thus: acute toxicity after oral administration to mice (LD50). As to conditions: mouse, in vivo, mortality recorded for 15 days. Here is the method: The acute toxicity of the compounds of the present invention was studied after oral administration to mice. The products to be tested, suspended in a 1% tragacanth gum mucilage, were administered by means of an intragastric probe to groups of three male mice which had fasted since the preceding day. The doses tested are a function of the effect observed and can vary from 3,000 to 3 mg/kg or less. The mortality was recorded for 15 days. The lethal dose for 50% of the animals (LD50) was calculated according to the method of J. Litchfield and F. Wilcoxon, J. Pharmacol. Exp. Ther., 96, 99 (1949) and expressed in mg/kg. The effect of the products on the behavior of the animals was observed during a 5-to-6 hour period after the treatment indicated above and after 24 hours, using a method derived from that of S. Irwin, described by R. A. Turner, Screening Methods in Pharmacology, Chapter 3, pages 22-34, Academic Press, 1965. If anomalies were noted, the observation was prolonged and smaller doses were tested. The compounds of the present invention have been subjected to a series of in vitro and in vivo tests to determine their biological activity and therapeutic utility. The essential activity of importance resides in the α2 receptor antagonistic activity. […]

The next series addresses T2, α2 adrenergic receptors (Cavia porcellus, UniProt Q60474).
T2 construct: upon isolated organs according to a model described by G. Drews; from tissue; host or cells: isolated guinea pig ileum
T2 sequence (Q60474 1-464): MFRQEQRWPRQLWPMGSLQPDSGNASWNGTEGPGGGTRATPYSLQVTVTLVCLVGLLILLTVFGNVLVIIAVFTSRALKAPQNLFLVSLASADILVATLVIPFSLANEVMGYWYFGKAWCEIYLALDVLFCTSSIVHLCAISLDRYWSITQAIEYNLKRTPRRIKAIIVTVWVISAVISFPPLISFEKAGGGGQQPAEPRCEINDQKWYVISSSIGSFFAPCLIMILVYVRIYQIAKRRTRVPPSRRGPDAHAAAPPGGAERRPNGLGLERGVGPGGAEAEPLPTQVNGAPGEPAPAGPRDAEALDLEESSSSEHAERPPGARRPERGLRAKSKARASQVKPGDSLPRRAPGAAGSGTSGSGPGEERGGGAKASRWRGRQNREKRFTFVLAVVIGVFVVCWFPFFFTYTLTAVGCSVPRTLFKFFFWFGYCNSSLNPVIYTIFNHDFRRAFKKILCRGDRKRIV
As to the kind of experiment: isolated guinea pig ileum, α2 antagonistic and α2 agonistic activity (clonidine inhibition of electrically induced contractions). Here is the method: In Table IV, columns 3 and 4 summarize the in vitro activities of the compounds evaluated in a guinea pig ileum model. Column 5 summarizes the α2 antagonistic effects of the compounds in an in vivo animal model. The α2 antagonistic and α2 agonistic activities of the compounds according to the invention were determined upon isolated organs according to a model described by G. Drews, Br. J. Pharmaco., 64, 293-300 (1978). This model was based upon the principle that the stimulation of the cholinergic nervous transmissions of the guinea pig ileum causes the liberation of acetyl choline, which in turn causes contractions of the ileum. The stimulation of the α2 -adrenergic receptors inhibits the activity of the cholinergic nerves and consequently reduces all responses due to the latter. Thus the contractions of the ileum induced by electric stimulation are inhibited by clonidine, an α2 agonist, in proportion to the dose. This inhibition was selectively displaced by α2 antagonists and not by α1 antagonists. The method used can be summarized as follows. Three dose-response curves to clonidine were established at an interval of 60 minutes. […] The dose-response curves were calculated as a percentage of the maximum inhibition obtained for the first curve. […] The α2 antagonist activity, expressed in pA2 value shown in column 3 of Table IV, was calculated according to J. M. Van Rossum, Arch. […]

`c1ccc(C(Cc2c[nH]cn2)c2ccccc2)cc1` [CC, reference compound]: in the series on α1 adrenergic receptor, the “% Inhibition of the specific binding for α1 receptor, Ligand WB” value (“% Inhibition … Ligand WB” for short) is 21%; the “% Inhibition of the specific binding for α1 receptor, Ligand PRA” value (shortened to “% Inhibition … Ligand PRA”) amounted to 27%; the Ki was 660 nM. Also, on α2 adrenergic receptor [1], the Ki was determined as 7.8 nM. For the same compound, in the series on α2 adrenergic receptor [2], the “Selectivity of α1/α2 affinity (Kiα1/Kiα2)” value (“Selectivity” for short) was determined as 85. Also, in series [3], the “Open field test % inhibition of clonidine hypomobility, Locomotion” value was 100% and the “Open field test % inhibition of clonidine hypomobility, Rearing” value is reported as 100%.
As for `c1ccc(C(Cc2c[nH]cn2)c2ccncc2)cc1` (stereo not drawn) [Compound 1, 4(5)-[2-phenyl-2-(4-pyridinyl)-ethyl]-imidazole], in the series on α1 adrenergic receptor, the “% Inhibition … Ligand WB” value amounted to 2%; the “% Inhibition … Ligand PRA” value worked out at 14%; the Ki was found to be 13400 nM. For the same compound, at α2 adrenergic receptor [1], the inhibition at 0.1 µM turned out to be 91%, the “affinity for α2 receptors in the in vitro binding assay (in words)” value was “high affinity for α2 receptors”, the Ki came out at 4.6 nM and the “α2-receptor binding affinity for the aminoclonidine ligand relative to the ortho-pyridyl compound (Compound 3)” value is “fifteen times higher”. For the same compound, the “Selectivity” value in the series with α2 adrenergic receptor [2] amounted to 2900. Also, in series [3], the “Open field test % inhibition of clonidine hypomobility, Locomotion” value is 90% and the “Open field test % inhibition of clonidine hypomobility, Rearing” value is given as 80%. Further, in series [3] (mouse open field, result in words), the “antagonism of clonidine-induced depression of locomotor and rearing activity (in words)” value is given as “very active in this test”.
Regarding `c1ccc(C(Cc2c[nH]cn2)c2cccnc2)cc1` (stereo not drawn) [Compound 2, 4(5)-[2-phenyl-2-(3-pyridinyl)-ethyl]-imidazole], in the series on α1 adrenergic receptor, the “% Inhibition … Ligand WB” value worked out at 7%; the “% Inhibition … Ligand PRA” value came to 10%; the Ki stood at 2600 nM. For the same compound, at α2 adrenergic receptor [1], the inhibition at 0.1 µM was found to be 94%, the “affinity for α2 receptors in the in vitro binding assay (in words)” value is recorded as “high affinity for α2 receptors”, the Ki is 4.8 nM and the “α2-receptor binding affinity for the aminoclonidine ligand relative to the ortho-pyridyl compound (Compound 3)” value is reported as “fifteen times higher”. For the same compound, the “Selectivity” value with α2 adrenergic receptor [2] is listed as 540. Further, in series [4], the LD50 at 360 h is about 175 mg/kg.
Turning to `c1ccc(C(Cc2c[nH]cn2)c2ccccn2)cc1` (stereo not drawn) [Compound 3, 4(5)-[2-phenyl-2-(2-pyridyl)-ethyl]-imidazole], in the series with α1 adrenergic receptor, the “% Inhibition … Ligand WB” value was 0%. On α2 adrenergic receptor [1], the inhibition at 0.1 µM worked out at 40% and the Ki was 73 nM. The same compound came in with an LD50 at 360 h in series [4] of 130 mg/kg. Besides, at α2 adrenergic receptors (against clonidine, read-out: α2 antagonist activity pA2 (converted)), the Kb was 50.1 nM. In addition, the EC50 on α2 adrenergic receptors (pD2 = -log ED50, 50% of maximum inhibition obtained with clonidine, read-out: α2 agonist activity pD2 (converted)) is 100000 nM.
